Key:
Type in all cases: binding
[1] = biological target: T1, XylE-WW (xylose:proton symporter XylE) (Escherichia coli, UniProt P0AGF4, G58W/L315W); test: MST
[2] = biological target: T2, XylE (WT, xylose:proton symporter) (Escherichia coli, UniProt P0AGF4); test: MST
T2 sequence (P0AGF4 1-491): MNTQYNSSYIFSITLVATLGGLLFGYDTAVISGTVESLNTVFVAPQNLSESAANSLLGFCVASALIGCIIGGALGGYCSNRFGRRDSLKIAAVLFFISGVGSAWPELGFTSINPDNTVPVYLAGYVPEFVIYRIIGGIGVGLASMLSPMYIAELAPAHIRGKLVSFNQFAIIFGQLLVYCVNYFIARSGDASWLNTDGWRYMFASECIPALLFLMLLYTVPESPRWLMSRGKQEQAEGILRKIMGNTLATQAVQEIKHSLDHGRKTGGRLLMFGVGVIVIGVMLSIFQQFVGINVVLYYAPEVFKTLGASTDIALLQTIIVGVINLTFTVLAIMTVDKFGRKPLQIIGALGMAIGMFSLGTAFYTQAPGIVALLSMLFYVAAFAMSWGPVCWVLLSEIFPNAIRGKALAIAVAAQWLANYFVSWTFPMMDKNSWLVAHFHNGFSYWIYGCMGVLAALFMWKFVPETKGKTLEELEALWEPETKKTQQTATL

[3] = biological target: T1, XylE-WW (xylose:proton symporter XylE); test: MST and ITC
[4] = biological target: T2, XylE (WT, xylose:proton symporter); test: ITC (MST almost identical)

Compound | Kd [1] [µM] | Kd [2] [µM] | Kd [3] [µM] | Kd [4] [µM]
OC[C@H]1OC(O)[C@H](O)[C@@H](O)[C@@H]1O (stereo partly drawn) [D-glucose] | 27.5 ± 0.5 | 2080 ± 95.7 | – | –
OC1OC[C@@H](O)[C@H](O)[C@H]1O (stereo partly drawn) [D-xylose] | – | – | 14.4 ± 0.2 | 843 ± 8
